Laboratory results published in patent US20060024234A1, “Protein markers for pharmaceuticals and related toxicity” (LARGE SCALE PROTEOMICS CORPORATION, A Division of Large …, priority 2000, published 2006).

What was measured:
rat liver proteins [1] = target: T1, rat liver proteins (Rattus norvegicus, UniProt P05545); test: Proteome analysis (2-D gel electrophoresis) of liver of rats fed antilipemic drugs at low and high dose for 7 days (Examples 1-3); assay type: in vivo; details: rat liver, high doses
T1 construct: The 2DGE protein pattern of rat liver illustrates over 1000 Coomassie Blue stained protein spots; from tissue; host or cells: liver (left apical lobe) of drug-fed F344 rats
T1 sequence (P05545 21-416): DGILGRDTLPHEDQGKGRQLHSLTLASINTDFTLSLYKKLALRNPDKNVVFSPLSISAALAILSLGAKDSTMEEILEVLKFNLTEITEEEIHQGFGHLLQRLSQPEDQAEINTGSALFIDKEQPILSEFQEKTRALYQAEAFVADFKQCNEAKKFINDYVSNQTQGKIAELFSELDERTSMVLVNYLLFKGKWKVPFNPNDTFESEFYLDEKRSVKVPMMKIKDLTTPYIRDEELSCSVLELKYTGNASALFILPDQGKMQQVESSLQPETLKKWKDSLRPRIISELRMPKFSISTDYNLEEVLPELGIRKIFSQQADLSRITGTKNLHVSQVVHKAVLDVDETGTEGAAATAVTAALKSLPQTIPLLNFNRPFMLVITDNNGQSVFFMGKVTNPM
Procedure: (§1) The animals were guillotined after CO2 asphyxiation on the day following the last treatment. Liver samples (150 mg of the left apical lobe) were removed and flash frozen in liquid nitrogen and kept at −80° C. until analysis.
(§2) The homogenates were centrifuged at 420,000×g at 22° C. for 30 min. […] The supernatant was removed, divided into four aliquots and stored at −80° C. until analysis.
(§3) An Angelique™ computer-controlled gradient-casting system (Large Scale Biology Corporation, Rockville, Md.) was used to prepare the second-dimension SDS slab gels. […] Second-dimensional slab gels were run overnight at 160 V in cooled DALT tanks (10° C.) with buffer circulation and were taken out when the tracking dye reached the bottom of the gel. Following SDS electrophoresis, the slab gels were fixed overnight in 1.5 liters/10 gels of 50% ethanol/3% phosphoric acid and then washed three times for 30 min in 1.5 liters/10 gels of cold DI water. They were transferred to 1.5 liters/10 gels of 34% methanol/17% ammonium sulfate/3% phosphoric acid for one hour, and after the addition of one gram powdered Coomassie Blue G-250 the gels were stained for three days to achieve equilibrium intensity.
(§4) Groupwise statistical comparisons were made to search for treatment-related protein abundance changes.
(§5) For these experiments, only pharmaceutical grade compounds were used with the trademark identifying the source. […] In each experiment, the low dose was equivalent to the daily human therapeutic dose.

rat liver proteins [2] = target: T2, rat liver proteins (Rattus norvegicus, UniProt P31044); test: as above; assay type: in vivo; details: rat liver
T2 construct: The 2DGE protein pattern of rat liver illustrates over 1000 Coomassie Blue stained protein spots; from tissue; host or cells: liver (left apical lobe) of drug-fed F344 rats
T2 sequence (P31044 1-187): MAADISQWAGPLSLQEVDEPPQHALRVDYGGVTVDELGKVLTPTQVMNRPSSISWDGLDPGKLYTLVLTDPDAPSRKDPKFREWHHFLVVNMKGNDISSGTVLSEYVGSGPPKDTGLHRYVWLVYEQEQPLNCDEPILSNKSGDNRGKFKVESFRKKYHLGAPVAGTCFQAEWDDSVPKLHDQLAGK
Procedure: as §1, §2, §3, §4, §5

rat liver proteins [3] = target: T3, rat liver proteins (Rattus norvegicus, UniProt P55260); test: as above; assay type: in vivo; details: rat liver
T3 construct: The 2DGE protein pattern of rat liver illustrates over 1000 Coomassie Blue stained protein spots; from tissue; host or cells: liver (left apical lobe) of drug-fed F344 rats
T3 sequence (P55260 1-319): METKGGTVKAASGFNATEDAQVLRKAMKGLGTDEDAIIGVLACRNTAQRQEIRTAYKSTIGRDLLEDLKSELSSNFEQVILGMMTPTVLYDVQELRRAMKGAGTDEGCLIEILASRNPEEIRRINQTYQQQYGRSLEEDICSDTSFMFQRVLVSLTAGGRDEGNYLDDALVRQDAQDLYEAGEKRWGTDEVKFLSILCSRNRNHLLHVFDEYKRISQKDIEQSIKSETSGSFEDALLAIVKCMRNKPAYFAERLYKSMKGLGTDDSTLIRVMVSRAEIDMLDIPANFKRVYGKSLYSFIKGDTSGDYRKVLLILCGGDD
Procedure: as §1, §2, §3, §4, §5

rat liver proteins [4] = test: as above; assay type: in vivo
Procedure: as §1, §2, §3, §4, §5

[5] = Weight gain of treated rats; assay type: in vivo, rat; details: high doses
[6] = rat liver, 1500 ppm in feed for 7 days

CC[C@H](C)C(=O)O[C@H]1C[C@@H](C)C=C2C=C[C@H](C)[C@H](CC[C@@H]3C[C@@H](O)CC(=O)O3)[C@H]21 [Mevacor ®, lovastatin]
serine protease inhibitor 2 (SPI-2) abundance (rat liver proteins [1]): decrease | 23 kD morphine binding protein abundance (rat liver proteins [2]): increased | annexin IV abundance (rat liver proteins [3]): dose-dependent increase | protein abundance changes in liver at low dose (rat liver proteins [4]; 16 ppm in feed for 7 days): not of statistical significance | protein kinase C inhibitor abundance (rat liver proteins [4]; rat liver): increased | number of hepatic proteins with altered abundance, p<0.001 (rat liver proteins [4]; [6]): 32 | number of liver proteins with altered abundance, p<0.0001 (rat liver proteins [4]; [6]): 8 | number of liver proteins with altered abundance, p<0.005 (rat liver proteins [4]; [6]): 64 | number of lost liver proteins (rat liver proteins [4]; [6]): one | number of new liver proteins (rat liver proteins [4]; [6]): 1 | number of liver proteins with altered abundance (total) (rat liver proteins [4]; rat liver, two-tailed Student's t-test, 1500 ppm in feed for 7 days): 66 | weight gain [5]: decrease
